{"source": "patent US12721349B2", "about": "“Method for promoting bacterial cell wall degradation” (KABUSHIKI KAISHA YAKULT HONSHA, priority 2019, dated 2026)", "key": {"[1]": {"test_system": "Lactobacillus casei YIT 9029", "test": "Cell wall degradation of YIT 9029 by lysozyme and mutanolysin (recombinant) with added saccharide, turbidity OD615", "type": "cell-based", "conditions": "saccharide 0.5 M, 37° C.; for cell wall degradation-promoting effect / cell wall degradation-promoting effect after 1 hour of the reaction: FIG. 4; for cell wall degradation rate compared with the reaction in which no saccharide was added: up to 24 hours, FIG. 1", "experimental": "Lactobacillus casei YIT 9029 (hereinafter, referred to as YIT 9029) was used. Thirty microliters of the pre-cultured bacterial solution of about 2×10^9 CFU/mL cultured in the MRS Broth was inoculated in 30 mL of the MRS Broth prepared in the above (2) and then cultured at 37° C. for 24 hours. […] The bacteria were suspended in a 5 mM Tris-maleate buffer solution (manufactured by Sigma-Aldrich Co.) (pH 6.4) of the same volume as that of the original bacterial solution, and 100 μg of lysozyme from chicken egg white lyophilized powder (manufactured by Sigma-Aldrich Co., hereinafter, referred to as lysozyme), which is egg white lysozyme, and 100 U of mutanolysin (recombinant) (manufactured by A&A Biotechnology) were added per 1 mL of the suspension. The reaction solution was treated at 37° C. for 24 hours. In addition, in order to examine the influence of the addition of a saccharide on cell wall degradation reaction, the same reaction was performed using a Tris-maleate buffer solution containing D-glucose or L-rhamnose at a final concentration of 0.5 M instead of the Tris-maleate buffer solution. Each reaction was performed in triplicate. The turbidity (OD615) of the bacterial suspension at 615 nm (maximal absorption wavelength; measurement wavelength range: 575-660 nm) was measured over time using a spectrophotometer PiCOSCOPE PAS-110 (manufactured by Ushio Inc.), and the degradation rate was calculated by the following equation (1). The degradation rate was shown by the mean±standard deviation of triplicate. Degradation rate=1−(OD615 after reaction/OD615 before reaction) (1). (6) Result […] Each reaction was performed in triplicate. The same reaction as in Example 1 was performed except that D-arabinose, L-arabinose, D-lyxose, L-lyxose, D-xylose, L-xylose, D-ribose, L-ribose, D-fucose, L-fucose, D-mannose, L-mannose, D-galactose, or D-fructose was added as the saccharide, and the cell wall degradation-promoting effect of each saccharide was examined. Each reaction was performed in triplicate. […] Each reaction was performed in triplicate."}, "[2]": {"test_system": "Lactobacillus casei YIT 9029", "test": "Cell wall degradation of YIT 9029 by mutanolysin (recombinant) alone with added saccharide, turbidity OD615", "type": "cell-based", "conditions": "37° C.; for degradation-promoting effect, mutanolysin alone: 0.5, 1.0 or 1.5 M, FIG. 5B", "experimental": "The bacteria were suspended in a 5 mM Tris-maleate buffer solution (manufactured by Sigma-Aldrich Co.) (pH 6.4) of the same volume as that of the original bacterial solution, and 100 μg of lysozyme from chicken egg white lyophilized powder (manufactured by Sigma-Aldrich Co., hereinafter, referred to as lysozyme), which is egg white lysozyme, and 100 U of mutanolysin (recombinant) (manufactured by A&A Biotechnology) were added per 1 mL of the suspension. The reaction solution was treated at 37° C. for 24 hours. In addition, in order to examine the influence of the addition of a saccharide on cell wall degradation reaction, the same reaction was performed using a Tris-maleate buffer solution containing D-glucose or L-rhamnose at a final concentration of 0.5 M instead of the Tris-maleate buffer solution. Each reaction was performed in triplicate. The turbidity (OD615) of the bacterial suspension at 615 nm (maximal absorption wavelength; measurement wavelength range: 575-660 nm) was measured over time using a spectrophotometer PiCOSCOPE PAS-110 (manufactured by Ushio Inc.), and the degradation rate was calculated by the following equation (1). The degradation rate was shown by the mean±standard deviation of triplicate. Degradation rate=1−(OD615 after reaction/OD615 before reaction) (1). (6) Result It was expected from Examples 1 to 4 that a saccharide such as D-arabinose increases the activity of mutanolysin to promote the degradation of cell wall. However, since a possibility that the saccharide increases the activity of lysozyme that has been added together cannot be excluded, the degradation rate when YIT 9029 was treated with mutanolysin or lysozyme alone was examined using some saccharides. […] Each reaction was performed without replicates. […] Each reaction was performed in triplicate."}, "[3]": {"test_system": "Lactobacillus casei YIT 9029", "test": "Cell wall degradation of YIT 9029 by lysozyme alone with added saccharide, turbidity OD615", "type": "cell-based", "conditions": "1.5 M, 37° C., FIG. 5A", "experimental": "The bacteria were suspended in a 5 mM Tris-maleate buffer solution (manufactured by Sigma-Aldrich Co.) (pH 6.4) of the same volume as that of the original bacterial solution, and 100 μg of lysozyme from chicken egg white lyophilized powder (manufactured by Sigma-Aldrich Co., hereinafter, referred to as lysozyme), which is egg white lysozyme, and 100 U of mutanolysin (recombinant) (manufactured by A&A Biotechnology) were added per 1 mL of the suspension. The reaction solution was treated at 37° C. for 24 hours. In addition, in order to examine the influence of the addition of a saccharide on cell wall degradation reaction, the same reaction was performed using a Tris-maleate buffer solution containing D-glucose or L-rhamnose at a final concentration of 0.5 M instead of the Tris-maleate buffer solution. Each reaction was performed in triplicate. The turbidity (OD615) of the bacterial suspension at 615 nm (maximal absorption wavelength; measurement wavelength range: 575-660 nm) was measured over time using a spectrophotometer PiCOSCOPE PAS-110 (manufactured by Ushio Inc.), and the degradation rate was calculated by the following equation (1). The degradation rate was shown by the mean±standard deviation of triplicate. Degradation rate=1−(OD615 after reaction/OD615 before reaction) (1). […]"}, "[4]": {"test": "Solubility in water at room temperature", "type": "physicochemical", "conditions": "read-out: upper limit of the solubility in water"}, "[5]": {"test_system": "Lactobacillus casei YIT 9029", "test": "Cell wall degradation of YIT 9029 by lysozyme and mutanolysin (recombinant) with added saccharide, turbidity OD615", "type": "cell-based", "conditions": "for difference between the promotion effects of the D-form and the L-form: 0.1 M to 1.5 M; for difference between the promotion effects of the D-form and the L-form / concentration dependence of the degradation rate: FIG. 6; for concentration dependence of the degradation rate: concentration range of 0.1 M and 1.0 M"}, "[6]": {"test_system": "Lactobacillus casei YIT 9029", "test": "Cell wall degradation of YIT 9029 by lysozyme and mutanolysin from Streptomyces globisporus ATCC 21553 with added saccharide, turbidity OD615", "type": "cell-based", "conditions": "1.5 M, 37° C. or 50° C., mutanolysin from Streptomyces globisporus ATCC 21553, FIG. 3A", "experimental": "The reaction solution was treated at 37° C. for 24 hours. In addition, in order to examine the influence of the addition of a saccharide on cell wall degradation reaction, the same […] buffer solution. Each reaction was performed in triplicate. The turbidity (OD615) of the bacterial suspension at 615 nm (maximal absorption wavelength; measurement wavelength range: 575-660 nm) was measured over time using a spectrophotometer PiCOSCOPE PAS-110 (manufactured by Ushio Inc.), and the degradation rate was calculated by the following equation (1). The degradation rate was shown by the mean±standard deviation of triplicate. Degradation rate=1−(OD615 after reaction/OD615 before reaction) (1). (6) Result […] Each reaction was performed without replicates."}}}
{"smiles": "O=C[C@@H](O)[C@H](O)[C@H](O)CO", "note": "[D-arabinose]", "values": [{"measurement": "degradation rate after 1 hour of the reaction relative to the reaction in which no saccharide was added", "setting": "[1]", "value": "about 4 times"}, {"measurement": "cell wall degradation-promoting effect", "setting": "[1]", "value": "showed the cell wall degradation-promoting effect"}, {"measurement": "promotion of degradation, mutanolysin alone", "setting": "[2]; 1.5 M, FIG. 5A", "value": "promoted the degradation"}, {"measurement": "promotion of degradation, lysozyme alone", "setting": "[3]", "value": "did not show significant promotion of degradation"}, {"measurement": "solubility", "setting": "[4]", "value": "~1500", "unit": "mM"}, {"measurement": "difference between the promotion effects of the D-form and the L-form", "setting": "[5]; 37° C. or 50° C.", "value": "no difference"}, {"measurement": "promotion of degradation, mutanolysin and lysozyme in combination", "setting": "[5]; 1.5 M, 37° C., FIG. 5A", "value": "promoted the degradation"}, {"measurement": "degradation rate after 1 hour", "setting": "[5]; 1.5 M, 50° C., FIG. 7", "value": 93, "unit": "%"}, {"measurement": "concentration dependence of the degradation rate", "setting": "[5]", "value": "concentration dependence was observed"}, {"measurement": "degradation rate at 50° C. compared with 37° C.", "setting": "[5]; reaction for a short time, FIG. 7", "value": "higher"}]}
{"smiles": "O=C(CO)[C@@H](O)[C@H](O)[C@H](O)CO", "note": "[D-fructose]", "values": [{"measurement": "cell wall degradation-promoting effect after 1 hour of the reaction", "setting": "[1]", "value": "showed the cell wall degradation-promoting effect"}]}
{"smiles": "O=C[C@H](O)[C@@H](O)[C@H](O)[C@H](O)CO", "note": "[D-glucose, reference compound]", "values": [{"measurement": "cell wall degradation rate compared with the reaction in which no saccharide was added", "setting": "[1]", "value": "decrease in cell wall degradation rate"}]}
{"smiles": "O=C[C@@H](O)[C@@H](O)[C@H](O)CO", "note": "[D-lyxose]", "values": [{"measurement": "cell wall degradation-promoting effect", "setting": "[1]", "value": "showed the cell wall degradation-promoting effect"}]}
{"smiles": "O=C[C@H](O)[C@H](O)[C@H](O)CO", "note": "[D-ribose]", "values": [{"measurement": "cell wall degradation-promoting effect", "setting": "[1]", "value": "showed the cell wall degradation-promoting effect"}]}
{"smiles": "O=C[C@H](O)[C@@H](O)[C@H](O)CO", "note": "[D-xylose]", "values": [{"measurement": "cell wall degradation-promoting effect after 1 hour of the reaction", "setting": "[1]", "value": "showed the cell wall degradation-promoting effect"}]}
{"smiles": "O=C[C@H](O)[C@@H](O)[C@@H](O)CO", "note": "[L-arabinose]", "values": [{"measurement": "degradation rate after 1 hour of the reaction relative to the reaction in which no saccharide was added", "setting": "[1]", "value": "about 4 times"}, {"measurement": "cell wall degradation-promoting effect", "setting": "[1]", "value": "showed the cell wall degradation-promoting effect"}, {"measurement": "degradation-promoting effect, mutanolysin alone", "setting": "[2]", "value": "showed the degradation-promoting effect"}, {"measurement": "solubility", "setting": "[4]", "value": "~1500", "unit": "mM"}, {"measurement": "difference between the promotion effects of the D-form and the L-form", "setting": "[5]; 37° C. or 50° C.", "value": "no difference"}, {"measurement": "concentration dependence of the degradation rate", "setting": "[5]", "value": "concentration dependence was observed"}]}
{"smiles": "C[C@H](O)[C@@H](O)[C@@H](O)[C@H](O)C=O", "note": "[L-fucose]", "values": [{"measurement": "degradation rate after 1 hour of the reaction relative to the reaction in which no saccharide was added", "setting": "[1]", "value": "about 3 times"}, {"measurement": "cell wall degradation-promoting effect", "setting": "[1]", "value": "showed the cell wall degradation-promoting effect"}, {"measurement": "degradation-promoting effect, mutanolysin alone", "setting": "[2]", "value": "showed the degradation-promoting effect"}]}
{"smiles": "O=C[C@H](O)[C@H](O)[C@@H](O)CO", "note": "[L-lyxose]", "values": [{"measurement": "cell wall degradation-promoting effect", "setting": "[1]", "value": "showed the cell wall degradation-promoting effect"}]}
{"smiles": "O=C[C@H](O)[C@H](O)[C@@H](O)[C@@H](O)CO", "note": "[L-mannose]", "values": [{"measurement": "cell wall degradation-promoting effect", "setting": "[1]", "value": "showed the cell wall degradation-promoting effect"}, {"measurement": "degradation-promoting effect, mutanolysin alone", "setting": "[2]", "value": "showed the degradation-promoting effect"}]}
{"smiles": "C[C@H](O)[C@H](O)[C@@H](O)[C@@H](O)C=O", "note": "[L-rhamnose]", "values": [{"measurement": "cell wall degradation rate compared with the reaction in which no saccharide was added", "setting": "[1]", "value": "increase in cell wall degradation rate"}, {"measurement": "degradation-promoting effect, mutanolysin alone", "setting": "[2]", "value": "showed the degradation-promoting effect"}, {"measurement": "cell wall degradation rate compared with the reaction in which no saccharide was added", "setting": "[6]", "value": "increase in cell wall degradation rate"}, {"measurement": "degradation rate with increasing concentrations of L-rhamnose", "setting": "[5]; 0.5, 1.0, 1.5 M, 37° C. or 50° C., FIG. 2", "value": "increased with increasing concentrations"}, {"measurement": "degradation rate after 24 hours of the reaction", "setting": "[5]; 1.5 M, 37° C.", "value": 0.97}, {"measurement": "cell wall degradation rate compared with the reaction in which no saccharide was added", "setting": "[5]; 1.5 M, 37° C. or 50° C., mutanolysin (recombinant), FIG. 3B", "value": "increase in cell wall degradation rate"}, {"measurement": "degradation rate after 5 hours of the reaction", "setting": "[5]; 1.5 M, 37° C., rate = 1-(OD615 after/OD615 before)", "value": 0.83}, {"measurement": "degradation rate after 24 hours of the reaction", "setting": "[5]; 1.5 M, 50° C.", "value": 0.87}, {"measurement": "degradation rate after 1 hour of the reaction", "setting": "[5]; 1.5 M, 50° C., rate = 1-(OD615 after/OD615 before)", "value": 0.69}]}
{"smiles": "O=C[C@@H](O)[C@@H](O)[C@@H](O)CO", "note": "[L-ribose]", "values": [{"measurement": "cell wall degradation-promoting effect", "setting": "[1]", "value": "showed the cell wall degradation-promoting effect"}]}
{"smiles": "O=C[C@@H](O)[C@H](O)[C@@H](O)CO", "note": "[L-xylose]", "values": [{"measurement": "cell wall degradation-promoting effect", "setting": "[1]", "value": "showed the cell wall degradation-promoting effect"}]}
